According to the NIST ThermoML archive (doi:10.1021/je800224k):

Conditions: Liquid

CCn1cc[n+](C)c1.F[B-](F)(F)F [1-ethyl-3-methylimidazolium tetrafluoroborate]
Conditions	mass density [kg/m3]
293.15 K, 101.33 kPa, Vibrating tube method	1284.4
313.15 K, 101.33 kPa, Vibrating tube method	1269.1
313.2 K, 10000 kPa, Bellows volumetry	1274
313.2 K, 20000 kPa, Bellows volumetry	1278
313.2 K, 30000 kPa, Bellows volumetry	1282
313.2 K, 40000 kPa, Bellows volumetry	1287
313.2 K, 50000 kPa, Bellows volumetry	1291
313.2 K, 60000 kPa, Bellows volumetry	1295
313.2 K, 70000 kPa, Bellows volumetry	1299
313.2 K, 80000 kPa, Bellows volumetry	1302
313.2 K, 90000 kPa, Bellows volumetry	1306
313.2 K, 100000 kPa, Bellows volumetry	1310
313.2 K, 110000 kPa, Bellows volumetry	1313
313.2 K, 120000 kPa, Bellows volumetry	1317
313.2 K, 130000 kPa, Bellows volumetry	1320
313.2 K, 140000 kPa, Bellows volumetry	1323
313.2 K, 150000 kPa, Bellows volumetry	1327
313.2 K, 160000 kPa, Bellows volumetry	1330
313.2 K, 170000 kPa, Bellows volumetry	1333
313.2 K, 180000 kPa, Bellows volumetry	1336
313.2 K, 190000 kPa, Bellows volumetry	1339
313.2 K, 200000 kPa, Bellows volumetry	1342
332.6 K, 10000 kPa, Bellows volumetry	1259
332.6 K, 20000 kPa, Bellows volumetry	1264
332.6 K, 30000 kPa, Bellows volumetry	1268
332.6 K, 40000 kPa, Bellows volumetry	1273
332.6 K, 50000 kPa, Bellows volumetry	1277
332.6 K, 60000 kPa, Bellows volumetry	1281
332.6 K, 70000 kPa, Bellows volumetry	1285
332.6 K, 80000 kPa, Bellows volumetry	1289
332.6 K, 90000 kPa, Bellows volumetry	1293
332.6 K, 100000 kPa, Bellows volumetry	1297
332.6 K, 110000 kPa, Bellows volumetry	1300
332.6 K, 120000 kPa, Bellows volumetry	1304
332.6 K, 130000 kPa, Bellows volumetry	1307
332.6 K, 140000 kPa, Bellows volumetry	1311
332.6 K, 150000 kPa, Bellows volumetry	1314
332.6 K, 160000 kPa, Bellows volumetry	1317
332.6 K, 170000 kPa, Bellows volumetry	1321
332.6 K, 180000 kPa, Bellows volumetry	1324
332.6 K, 190000 kPa, Bellows volumetry	1327
332.6 K, 200000 kPa, Bellows volumetry	1330
333.15 K, 101.33 kPa, Vibrating tube method	1254
352.7 K, 10000 kPa, Bellows volumetry	1244
352.7 K, 20000 kPa, Bellows volumetry	1249
352.7 K, 30000 kPa, Bellows volumetry	1254
352.7 K, 40000 kPa, Bellows volumetry	1259
352.7 K, 50000 kPa, Bellows volumetry	1263
352.7 K, 60000 kPa, Bellows volumetry	1267
352.7 K, 70000 kPa, Bellows volumetry	1272
352.7 K, 80000 kPa, Bellows volumetry	1276
352.7 K, 90000 kPa, Bellows volumetry	1280
352.7 K, 100000 kPa, Bellows volumetry	1284
352.7 K, 110000 kPa, Bellows volumetry	1287
352.7 K, 120000 kPa, Bellows volumetry	1291
352.7 K, 130000 kPa, Bellows volumetry	1295
352.7 K, 140000 kPa, Bellows volumetry	1298
352.7 K, 150000 kPa, Bellows volumetry	1302
352.7 K, 160000 kPa, Bellows volumetry	1305
352.7 K, 170000 kPa, Bellows volumetry	1309
352.7 K, 180000 kPa, Bellows volumetry	1312
352.7 K, 190000 kPa, Bellows volumetry	1315
352.7 K, 200000 kPa, Bellows volumetry	1318
353.15 K, 101.33 kPa, Vibrating tube method	1239.3
372.8 K, 10000 kPa, Bellows volumetry	1230
372.8 K, 20000 kPa, Bellows volumetry	1235
372.8 K, 30000 kPa, Bellows volumetry	1240
372.8 K, 40000 kPa, Bellows volumetry	1245
372.8 K, 50000 kPa, Bellows volumetry	1250
372.8 K, 60000 kPa, Bellows volumetry	1254
372.8 K, 70000 kPa, Bellows volumetry	1258
372.8 K, 80000 kPa, Bellows volumetry	1263
372.8 K, 90000 kPa, Bellows volumetry	1267
372.8 K, 100000 kPa, Bellows volumetry	1271
372.8 K, 110000 kPa, Bellows volumetry	1275
372.8 K, 120000 kPa, Bellows volumetry	1279
372.8 K, 130000 kPa, Bellows volumetry	1282
372.8 K, 140000 kPa, Bellows volumetry	1286
372.8 K, 150000 kPa, Bellows volumetry	1290
372.8 K, 160000 kPa, Bellows volumetry	1293
372.8 K, 170000 kPa, Bellows volumetry	1297
372.8 K, 180000 kPa, Bellows volumetry	1300
372.8 K, 190000 kPa, Bellows volumetry	1303
372.8 K, 200000 kPa, Bellows volumetry	1307
392.9 K, 10000 kPa, Bellows volumetry	1216
392.9 K, 20000 kPa, Bellows volumetry	1221
392.9 K, 30000 kPa, Bellows volumetry	1227
392.9 K, 40000 kPa, Bellows volumetry	1232
392.9 K, 50000 kPa, Bellows volumetry	1237
392.9 K, 60000 kPa, Bellows volumetry	1241
392.9 K, 70000 kPa, Bellows volumetry	1246
392.9 K, 80000 kPa, Bellows volumetry	1250
392.9 K, 90000 kPa, Bellows volumetry	1254
392.9 K, 100000 kPa, Bellows volumetry	1259
392.9 K, 110000 kPa, Bellows volumetry	1263
392.9 K, 120000 kPa, Bellows volumetry	1267
392.9 K, 130000 kPa, Bellows volumetry	1270
392.9 K, 140000 kPa, Bellows volumetry	1274
392.9 K, 150000 kPa, Bellows volumetry	1278
392.9 K, 160000 kPa, Bellows volumetry	1282
392.9 K, 170000 kPa, Bellows volumetry	1285
392.9 K, 180000 kPa, Bellows volumetry	1289
392.9 K, 190000 kPa, Bellows volumetry	1292
392.9 K, 200000 kPa, Bellows volumetry	1295
413 K, 10000 kPa, Bellows volumetry	1202
413 K, 20000 kPa, Bellows volumetry	1208
413 K, 30000 kPa, Bellows volumetry	1213
413 K, 40000 kPa, Bellows volumetry	1219
413 K, 50000 kPa, Bellows volumetry	1224
413 K, 60000 kPa, Bellows volumetry	1229
413 K, 70000 kPa, Bellows volumetry	1233
413 K, 80000 kPa, Bellows volumetry	1238
413 K, 90000 kPa, Bellows volumetry	1242
413 K, 100000 kPa, Bellows volumetry	1247
413 K, 110000 kPa, Bellows volumetry	1251
413 K, 120000 kPa, Bellows volumetry	1255
413 K, 130000 kPa, Bellows volumetry	1259
413 K, 140000 kPa, Bellows volumetry	1263
413 K, 150000 kPa, Bellows volumetry	1267
413 K, 160000 kPa, Bellows volumetry	1270
413 K, 170000 kPa, Bellows volumetry	1274
413 K, 180000 kPa, Bellows volumetry	1278
413 K, 190000 kPa, Bellows volumetry	1281
413 K, 200000 kPa, Bellows volumetry	1285
432.9 K, 10000 kPa, Bellows volumetry	1189
432.9 K, 20000 kPa, Bellows volumetry	1195
432.9 K, 30000 kPa, Bellows volumetry	1200
432.9 K, 40000 kPa, Bellows volumetry	1206
432.9 K, 50000 kPa, Bellows volumetry	1211
432.9 K, 60000 kPa, Bellows volumetry	1216
432.9 K, 70000 kPa, Bellows volumetry	1221
432.9 K, 80000 kPa, Bellows volumetry	1226
432.9 K, 90000 kPa, Bellows volumetry	1230
432.9 K, 100000 kPa, Bellows volumetry	1235
432.9 K, 110000 kPa, Bellows volumetry	1239
432.9 K, 120000 kPa, Bellows volumetry	1243
432.9 K, 130000 kPa, Bellows volumetry	1247
432.9 K, 140000 kPa, Bellows volumetry	1252
432.9 K, 150000 kPa, Bellows volumetry	1255
432.9 K, 160000 kPa, Bellows volumetry	1259
432.9 K, 170000 kPa, Bellows volumetry	1263
432.9 K, 180000 kPa, Bellows volumetry	1267
432.9 K, 190000 kPa, Bellows volumetry	1270
432.9 K, 200000 kPa, Bellows volumetry	1274
452.6 K, 10000 kPa, Bellows volumetry	1176
452.6 K, 20000 kPa, Bellows volumetry	1182
452.6 K, 30000 kPa, Bellows volumetry	1188
452.6 K, 40000 kPa, Bellows volumetry	1193
452.6 K, 50000 kPa, Bellows volumetry	1199
452.6 K, 60000 kPa, Bellows volumetry	1204
452.6 K, 70000 kPa, Bellows volumetry	1209
452.6 K, 80000 kPa, Bellows volumetry	1214
452.6 K, 90000 kPa, Bellows volumetry	1219
452.6 K, 100000 kPa, Bellows volumetry	1223
452.6 K, 110000 kPa, Bellows volumetry	1228
452.6 K, 120000 kPa, Bellows volumetry	1232
452.6 K, 130000 kPa, Bellows volumetry	1236
452.6 K, 140000 kPa, Bellows volumetry	1240
452.6 K, 150000 kPa, Bellows volumetry	1245
452.6 K, 160000 kPa, Bellows volumetry	1248
452.6 K, 170000 kPa, Bellows volumetry	1252
452.6 K, 180000 kPa, Bellows volumetry	1256
452.6 K, 190000 kPa, Bellows volumetry	1260
452.6 K, 200000 kPa, Bellows volumetry	1264
472.4 K, 10000 kPa, Bellows volumetry	1163
472.4 K, 20000 kPa, Bellows volumetry	1169
472.4 K, 30000 kPa, Bellows volumetry	1175
472.4 K, 40000 kPa, Bellows volumetry	1181
472.4 K, 50000 kPa, Bellows volumetry	1187
472.4 K, 60000 kPa, Bellows volumetry	1192
472.4 K, 70000 kPa, Bellows volumetry	1197
472.4 K, 80000 kPa, Bellows volumetry	1202
472.4 K, 90000 kPa, Bellows volumetry	1207
472.4 K, 100000 kPa, Bellows volumetry	1212
472.4 K, 110000 kPa, Bellows volumetry	1217
472.4 K, 120000 kPa, Bellows volumetry	1221
472.4 K, 130000 kPa, Bellows volumetry	1226
472.4 K, 140000 kPa, Bellows volumetry	1230
472.4 K, 150000 kPa, Bellows volumetry	1234
472.4 K, 160000 kPa, Bellows volumetry	1238
472.4 K, 170000 kPa, Bellows volumetry	1242
472.4 K, 180000 kPa, Bellows volumetry	1246
472.4 K, 190000 kPa, Bellows volumetry	1250
472.4 K, 200000 kPa, Bellows volumetry	1253
